The source of these data is PMC10804683, “Identification of the pyridoxal 5′‐phosphate allosteric site in human pyridox(am)ine 5′‐phosphate oxidase” (Protein Science : A Publication of the Protein Society, 2024).

For test [1], the target named is T1, apo-PNPO wt (Homo sapiens, UniProt Q9NVS9).
T1 construct: a main form corresponding to the entire protein; made in house; host or cells: E. coli BL21(DE3)
T1 sequence (Q9NVS9 1-261): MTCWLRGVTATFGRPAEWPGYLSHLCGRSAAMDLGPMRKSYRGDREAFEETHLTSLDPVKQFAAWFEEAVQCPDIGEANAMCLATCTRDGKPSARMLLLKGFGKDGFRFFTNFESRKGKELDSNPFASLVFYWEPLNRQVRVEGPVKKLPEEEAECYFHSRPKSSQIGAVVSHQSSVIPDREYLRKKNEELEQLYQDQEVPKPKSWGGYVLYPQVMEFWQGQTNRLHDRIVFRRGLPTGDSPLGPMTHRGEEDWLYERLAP
Put plainly: PLP binding by intrinsic fluorescence, apo wild type. The following applies: intrinsic fluorescence 335–345 nm, excitation 280 nm, 100 nM enzyme, read-out: Apo-enzyme PLP binding KD^FLUO. The text has this: PLP binding to PNPO can be detected and quantitatively measured using differential scanning fluorimetry (DSF) and also by measuring FMN fluorescence changes. We had previously attributed DSF changes to PLP binding at the active site, while FMN fluorescence changes were attributed to PLP binding at the allosteric site (Barile et al., [2019], [2020]). Previous experiments carried out with the PNPO R161C variant, affecting a residue that is essential for substrate binding and catalysis (and therefore also for PLP binding at the active site), confirms that DSF measurements only report PLP binding at the active site (Barile et al., [2021]; Table 1). […] We expected to observe no FMN fluorescence changes upon titration of the variants with PLP. However, this was not the case, and the dissociation constant values obtained by observing the FMN fluorescence emission were only up to threefold larger in the variants with respect to wild type PNPO (Figure 3). […] To check the second possibility, we measured intrinsic fluorescence changes of wild type and variant apo‐forms (i.e., without FMN) upon PLP titration. […]
Analyses of PLP binding, based on FMN fluorescence increase observed upon binding of PLP to PNPO, were performed as described in Barile et al. ([2020]). […] Emission spectra were recorded from […], with excitation and emission slits set at 3 and 5 nm, respectively. […]

The target of test [2] is T2, human PNPO F48A variant (Homo sapiens, UniProt Q9NVS9, F48A).
T2 sequence (Q9NVS9 1-261 F48A): T1 sequence (Q9NVS9 1-261) with F48A
Put plainly: PLP inhibition kinetics of PNP oxidation, F48A. The format is biochemical. On the set-up: a main form corresponding to the entire protein; made in house; host or cells: E. coli BL21(DE3). Particulars: F48A (behavior much less marked than wild type); Na-HEPES pH 7.6, 2 μM enzyme, PLP 0–16 μM. The protocol:
This is a general inhibition mechanism that takes into account the possibility of PLP binding to both the active and allosteric sites. PLP binding at the active site gives a complete, competitive inhibition, whereas PLP binding at the allosteric site yields a substrate‐enzyme‐PLP ternary complex that is still catalytically active, although k CAT is reduced by a coefficient whose value is around 0.15. A thorough inhibition kinetic characterization was carried out with the wild type, F48A, F48A/E50L/R258L, and F48A/E50L/H248N/R258L PNPO forms, so as to evaluate the effect of the variations on the allosteric properties of the enzyme. The initial velocity of PNP conversion into PLP was measured in Na‐HEPES buffer (in which PLP is allowed to accumulate) by varying substrate concentration at different, fixed exogenous PLP concentrations, using 2 μM enzyme. A series of saturation curves were obtained that were used to fit the Michaelis–Menten equation (Figure 5), acquiring apparent V MAX and K M values as a function of PLP concentration. […]
FIGURE 5 Characterization of PLP inhibition. Upper panels: The initial velocity of the reaction was measured with 2 μM wild type (a), and the F48A (b), F48A/E50L/R258L (c), and F48A/E50L/H248N/R258L (d) PNPO variants, varying PNP concentration while keeping exogenous PLP fixed at different concentrations (0, 0.25, 0.5, 1, 2, 4, 8, and 16 μM). […]

Each structure is given as a SMILES string. Positions count from the first letter of the chain named.

As to `Cc1ncc(COP(=O)(O)O)c(C=O)c1O` [PLP, pyridoxal 5′‐phosphate], in test [1], the Kd was 600 ± 50 nM. For the same molecule, in test [2], the “type of inhibition of PNP oxidation by PLP” value is “typical hyperbolic increase of 1/V MAX and the parabolic increase of K M/V MAX”.

Usually Kd stands for the free concentration of one partner at which half of the binding sites on the other are occupied at equilibrium, for simple one-to-one binding.
